# Test results: ChEMBL document CHEMBL3507680, “University of Dundee, Gates Library screen for HepG2 cell viability”
# Assay: Human HepG2 cell viability assay in 384 well format
# Format: toxicity, cell-based
# Design: dose 125 nL, time 70.5 hour; cytotoxicity at 70.5 h: concentration not given beside the values
# Settings: HepG2 cells, read-out: Inhibition
row,Structure (SMILES),cytotoxicity at 70.5 h
1,CCn1cc(CNCC(c2ccc(C)s2)N2CCOCC2)cn1 (configuration not stated),-7.64%
2,Cc1nc(-c2c(C)noc2C)cc(C2CCN(S(=O)(=O)N(C)C)CC2)n1,-8.98%
3,COc1ncccc1CN1C[C@H](C(=O)N2CCCO2)[C@@H]2CCO[C@@H]2C1,-6.23%
4,CC(C1CC1)N(CC(=O)NC(=O)NC1CC1)C1CC1 (configuration not stated),-3.17%
5,CCOc1cc(CNC(=O)c2cnn(CC)c2C(F)(F)F)ccn1,-12.6%
6,CC(C)(C)c1noc(OCC(=O)NC2CCCC2)n1,0.264%
7,CC(C)CCc1noc(CN2CCCN(C(=O)c3ccco3)CC2)n1,-0.918%
8,Cc1cccc2c1NC1(CCOCC1)NC2=O,-26.4%
9,Cc1ccc(N2CCC(C(=O)NC3CCc4nccn4C3)CC2)nc1 (configuration not stated),-90.5%
10,COc1ccccc1OC(C)CNC(=O)c1cnc[nH]1 (configuration not stated),-21.2%
11,COCc1ccccc1C(=O)NS(=O)(=O)c1ccc2c(c1)CCC(=O)N2,-9.29%
12,O=C(Nc1cnccn1)[C@H]1CC[C@@H]2[C@@H](CCN2Cc2ccccn2)O1,-0.71%
13,N[C@H]1CN(C(=O)c2ccc3[nH]c(=O)c(=O)[nH]c3c2)C[C@@H]1c1ccccc1,-16.1%
14,Cc1noc(C2CCC3(CCN(C(=O)c4cc(C5CC5)on4)CC3)O2)n1 (configuration not stated),-0.565%
15,CN(C)S(=O)(=O)Nc1ccc(-n2nncc2C(F)(F)F)cc1,3.32%
16,Cc1nc2c(c(C)c1CC(=O)Nc1ccc(Cl)cc1)c(=O)[nH]n2C,-3.48%
17,Cc1cnc(N2C[C@@H]3CN(C4CCOC4)CCC[C@]3(C(=O)O)C2)nc1 (some centres not stated),-7.9%
18,COc1ccc(Cl)cc1CN(CC(N)=O)C(C)C,-4.98%
19,Cc1nnc(NC(=O)CCc2c(C)nn3cnnc3c2C)s1,-7.03%
20,CCNc1cc2c(nn1)CCN(C(=O)c1ccoc1)C2,-11.9%
21,CCn1cc(C(=O)N2CCCC(c3[nH]ncc3S(C)(=O)=O)C2)cn1 (configuration not stated),-8.2%
22,Cc1cccc(C)c1NCc1noc(C2CC2)n1,0.946%
23,COC[C@@]12CCO[C@@H]1CCN(Cc1ccc(C)s1)C2,15.9%

row,Structure (SMILES),cytotoxicity at 70.5 h
1,Cc1ccc(-c2nc(CNS(=O)(=O)N(C)C)[nH]c2-c2ccccn2)cc1,-2.34%
2,CCc1cc(N2CCN(C(C)=O)CC2)n2nc(C)c(C)c2n1,10.6%
3,O=C1[C@H]2CN(CC3CC3)C[C@H]2CN1c1ccsc1,-3.2%
4,COc1ccc(F)c(CN2CCCC(O)(CNCc3ccoc3)C2=O)c1 (configuration not stated),-0.0121%
5,Cc1nnc([C@@H]2CC[C@@H]3[C@@H](CCN3C3CCOCC3)O2)o1,-3.43%
6,CCCNC(=O)C(C)n1cc(Br)cn1 (configuration not stated),-11.8%
7,CCc1c(C(=O)N2CCN(C)[C@@H]3CS(=O)(=O)C[C@@H]32)[nH]c2ccccc12,-0.756%
8,CCC(CNC(=O)OC)(OC)c1ccccc1 (configuration not stated),-0.855%
9,Cc1noc(C)c1CN1C[C@@H]2COC[C@H](C(=O)N3CCCO3)[C@@H]2C1,31.1%
10,CCN(C)c1ccc(CNS(=O)(=O)C2CCOCC2)cc1F,-10.6%
11,O=c1[nH]c(COc2ccc(Cl)cc2)nc2c1CCNC2,16.3%
12,CCCc1ccc(C(C)Nc2ncnc3c2CCNC3)cc1 (configuration not stated),-2.09%
13,CCC(CNS(C)(=O)=O)Oc1ccccc1F (configuration not stated),-6.95%
14,Cc1nc(C)n(C2CCCN(C(=O)CCc3cscn3)C2)n1 (configuration not stated),37%
15,COc1ccc2nnc(CCCC(=O)NCc3ccccc3OC)n2n1,-15.5%
16,CC(C)=CCC1(CO)CCCN(S(=O)(=O)N2CCCC2)C1 (configuration not stated),-14.7%
17,CN(CCn1nc2ccccn2c1=O)CC(=O)NC1CC1,-8.39%
18,Cc1cc(N2CCC(c3nccn3Cc3cscn3)CC2)ccn1,-3.14%
19,Cc1cc(C(=O)N(C)C)c2c(Br)cccc2n1,-10.8%
20,Cc1nnc(N2C[C@H](OCC3CCCC3)[C@H]3OCCC[C@H]32)s1,-5.71%
21,CN(C)C[C@@H]1CCC[C@@H]2CN(c3ncccn3)C[C@@H]21,-13%
22,Cc1csc(C(=O)N2CCC(S(C)(=O)=O)C2)c1 (configuration not stated),-3.26%
23,Cc1ccn(CCNc2ncnc3c2CCN(Cc2ncc[nH]2)CC3)n1,-8.65%

row,Structure (SMILES),cytotoxicity at 70.5 h
1,O=C(c1cccnc1)N1CCOC(CCCc2ccccc2)C1 (configuration not stated),0.528%
2,CC(Nc1cccc(CN2CCOC2=O)c1)C(=O)N1CCNC1=O (configuration not stated),-6.02%
3,CC(=O)Nc1nc(C(=O)N2CCCC2c2noc(C3CC3)n2)cs1 (configuration not stated),-3.64%
4,Cc1cc(NC(=O)C2CN(Cc3ccccc3)CCO2)ccn1 (configuration not stated),13%
5,CCN1CCN(C2CCN(Cc3noc(C4CC4)n3)CC2)C1=O,-3.61%
6,CS(=O)(=O)N1CC[C@H]2OCC[C@@]2(C(=O)NCCc2ccccn2)C1,-7.11%
7,Cc1ccccc1NC(=O)NCCn1nc(C(F)(F)F)n(C)c1=O,-2.02%
8,Cc1ncc(CNCC(=O)NC2CCCCC2)n1-c1ccccc1,9.11%
9,O=C(c1cnccn1)N1C[C@@H]2[C@@H](C1)OCC(=O)N2CC1CCCC1,1.12%
10,O=C(CCC(=O)N1CCOCC1)NCc1cccnc1-n1cccn1,1.46%
11,Cn1cnc2c(-c3cccnc3)nc(C3CCN(S(C)(=O)=O)CC3)cc21,-8.84%
12,Cc1ncc2c(n1)CN(CCCc1ccccc1)CC2,0.152%
13,CNc1ncccc1CN1CCC1c1cc(N)nc(C)n1 (configuration not stated),12.5%
14,CCS(=O)(=O)CC(=O)NC(c1ccccc1)C1CCCCC1 (configuration not stated),2.89%
15,CC(C)S(=O)(=O)N1CCC(c2cc3n(n2)[C@@H](C(F)(F)F)C[C@@H](C)N3)C1 (some centres not stated),-11%
16,Cc1ccc(C(=O)N(C)CC(=O)N2CCCC2)c(C)c1,-16%
17,CCc1nc(C2CCCN2C(=O)c2ccc(=O)n(CC)n2)no1 (configuration not stated),4.08%
18,O=C(c1ccncc1)N1CCN(Cc2cccnc2)c2ncccc2C1,-8.91%
19,Cc1cccc(CN2C[C@@H]3CN(C(=O)C4CC=CC4)C[C@@H]3C2=O)n1,-14.7%
20,CCCS(=O)(=O)N1C[C@@H](Oc2ccccn2)[C@H]2OCCC[C@H]21,-1.57%
21,CC(=O)NCc1cc2n(n1)CCN(Cc1cc(-c3ccccc3)no1)C2,-18.6%
22,CC(=O)N1CCN(C(=O)NC(C)C)CC2(CNC(=O)C2)C1 (configuration not stated),-28.3%
23,CN(C)c1cccc(C2CCN(C3COCC3O)CC2)n1 (configuration not stated),-4.45%

row,Structure (SMILES),cytotoxicity at 70.5 h
1,O=C(CCO)N[C@H]1CN(CC2CCC2)C[C@@H]1c1ccccc1,-3.06%
2,CN(C)CCN1C(=O)CCC12CCCN(C(=O)N(C)C)CC2 (configuration not stated),0.00398%
3,c1coc(-c2nc(CN3CCCC(Cn4cncn4)C3)cs2)c1 (configuration not stated),20.4%
4,O=C(CN(C1=NCCCCC1)c1ccc(Cl)cc1)c1ccccc1,10.9%
5,CC(C)N1CCc2[nH]nc(C(=O)N3CCOCC3)c2C1,-12.9%
6,c1cc(C2CCN(c3cnccn3)CC2)ncn1,1.96%
7,CS(=O)(=O)N1CCCCC1CCc1ccc(O)cc1 (configuration not stated),16.6%
8,CCN1CCN(C)C2(CCN(Cc3ccsc3)CC2)C1=O,-9.43%
9,CCNc1nnc(SCC(=O)N2CCN(Cc3ccc(Cl)s3)CC2)s1,-0.322%
10,O=C(O)C1CC2(CCN(c3nccc4ccccc34)CC2)CN1 (configuration not stated),9.49%
11,CCCC(=O)N1CCC(Nc2nc(O)cc(-c3ccsc3)n2)CC1,-3.98%
12,Cc1ccc(CN2CC[C@H]3CO[C@H](CN(C)C)[C@H]3C2)o1,-11.2%
13,COc1c(C2CCCN2C(=O)c2ccnn2C)c(C)nn1C (configuration not stated),-4.02%
14,CN(Cc1csc(-c2cccs2)n1)C(=O)CN1CCOC1=O,-3.58%
15,CCN(CC)CCN(CC(C)C)c1cc(C(F)(F)F)nc2ncnn12,0.687%
16,CCOc1ccccc1C(=O)NS(=O)(=O)c1ccc2c(c1)OCCCO2,-4.55%
17,CSc1ccc(S(=O)(=O)N2CCCCC2CCNC(C)=O)cc1 (configuration not stated),-9.19%
18,COCCN1CCC2(CC1)CC(NC(=O)C1CC1)c1ccccc1O2 (configuration not stated),-5.15%
19,CN(C(=O)c1ccccc1NCC(=O)O)C(C1CC1)C1CC1,-10.9%
20,CCc1[nH]ncc1C(=O)N1CCCN(Cc2nccn2C(C)C)CC1,0.199%
21,COCCN1CCCC(CN(C)c2nc3c(s2)c(C)nn3C)C1 (configuration not stated),-4.58%
22,Cn1ccc(C(=O)NCc2cccc(CN3CCCC3)c2)cc1=O,-3.99%
23,CN(Cc1cccnc1)Cc1cncc2c1CCN(Cc1ccoc1)C2,-7.08%

row,Structure (SMILES),cytotoxicity at 70.5 h
1,Cc1cc(NC(=O)c2ccc(F)cc2Br)n(C)n1,-4.35%
2,OCCOCc1n[nH]c2c1CN(Cc1cccs1)C2,-2.23%
3,C[C@@H]1C[C@H](C(F)(F)F)n2nc(C3CCN(S(=O)(=O)N(C)C)CC3)cc2N1,-5.83%
4,C/C(Cl)=C/CNC(=O)[C@H]1CC[C@]2(CC1)CN(C)C(=O)c1ccccc1O2,-6.71%
5,Cc1noc(C)c1CN1C[C@@H](C(=O)O)[C@H](c2ccccn2)C1,-6.58%
6,Cc1ccc(CNC(=O)NCCCO)cc1,19.3%
7,Cc1n[nH]c(C)c1CNC(=O)c1cn(CCC2CCCCN2)nn1 (configuration not stated),-1.34%
8,CCOc1ncccc1NC(=O)NC1CCCN(c2ncccn2)C1 (configuration not stated),-2.86%
9,CC(CCc1cccc(F)c1)NC(=O)NCc1ncnn1C (configuration not stated),-5.76%
10,Cc1occc1C(=O)N1CCC2(CCN(Cc3ccccn3)C2=O)C1 (configuration not stated),5.42%
11,Cc1cnn(CCCNC(=O)CCC2CCCCN2C)c1 (configuration not stated),-13.1%
12,Cc1noc(C(C)C)c1C(=O)NCCCN1CCNCC1,-7.14%
13,Cc1cc(-c2cnc(NC3CCCC3)nc2-c2ccoc2C)on1,-8.8%
14,Cc1n[nH]c(C)c1CCC(=O)N1CCC(O)(CN2CCN(C)CC2)C1 (configuration not stated),-6.92%
15,CC(C)CS(=O)(=O)CC(=O)NC1CCCCNC1=O (configuration not stated),-7.58%
16,CC(=O)N1CC(c2ccnc(Nc3ccc(C)cn3)n2)C1,-4.62%
17,O=C(NCc1ccccc1CO)C1COc2ccccc21 (configuration not stated),-0.572%
18,COc1ccc(CNCC2CN(C3CC3)CCO2)cc1OC (configuration not stated),-7.17%
19,Cc1cccc(CN2CC3(CCN(C(=O)N(C)C)CC3)OCC2=O)n1,-0.965%
20,O=C(Nc1ccccc1C(=O)NCCN1CCOCC1)c1ccco1,24.9%
